For data set [1], the target named is T1, epithelial sodium channels (ENaC) (Homo sapiens, UniProt P37088+P51168+P51170).
T1 construct: endogenous in cells; host or cells: primary human airway epithelial cells cultured at air-liquid interface
T1 sequence (P37088 1-669): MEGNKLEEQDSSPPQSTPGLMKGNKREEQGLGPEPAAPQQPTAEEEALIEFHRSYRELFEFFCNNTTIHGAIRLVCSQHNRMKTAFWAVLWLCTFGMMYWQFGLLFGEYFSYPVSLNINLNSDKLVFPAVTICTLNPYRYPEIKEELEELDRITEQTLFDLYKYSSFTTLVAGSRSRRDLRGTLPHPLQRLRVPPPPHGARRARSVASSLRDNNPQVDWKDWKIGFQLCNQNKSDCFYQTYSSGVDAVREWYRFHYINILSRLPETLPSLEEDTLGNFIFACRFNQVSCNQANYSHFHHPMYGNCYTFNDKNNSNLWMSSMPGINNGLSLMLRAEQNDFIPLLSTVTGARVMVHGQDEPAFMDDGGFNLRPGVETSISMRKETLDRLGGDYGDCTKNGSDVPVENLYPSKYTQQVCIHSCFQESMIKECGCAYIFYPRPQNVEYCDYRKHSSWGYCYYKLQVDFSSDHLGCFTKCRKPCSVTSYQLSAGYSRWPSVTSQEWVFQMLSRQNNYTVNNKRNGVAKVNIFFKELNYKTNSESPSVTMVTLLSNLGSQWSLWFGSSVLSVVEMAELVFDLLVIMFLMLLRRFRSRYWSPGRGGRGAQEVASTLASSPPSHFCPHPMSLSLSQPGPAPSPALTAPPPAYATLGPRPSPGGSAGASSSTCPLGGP
T1 sequence (P51168 1-640): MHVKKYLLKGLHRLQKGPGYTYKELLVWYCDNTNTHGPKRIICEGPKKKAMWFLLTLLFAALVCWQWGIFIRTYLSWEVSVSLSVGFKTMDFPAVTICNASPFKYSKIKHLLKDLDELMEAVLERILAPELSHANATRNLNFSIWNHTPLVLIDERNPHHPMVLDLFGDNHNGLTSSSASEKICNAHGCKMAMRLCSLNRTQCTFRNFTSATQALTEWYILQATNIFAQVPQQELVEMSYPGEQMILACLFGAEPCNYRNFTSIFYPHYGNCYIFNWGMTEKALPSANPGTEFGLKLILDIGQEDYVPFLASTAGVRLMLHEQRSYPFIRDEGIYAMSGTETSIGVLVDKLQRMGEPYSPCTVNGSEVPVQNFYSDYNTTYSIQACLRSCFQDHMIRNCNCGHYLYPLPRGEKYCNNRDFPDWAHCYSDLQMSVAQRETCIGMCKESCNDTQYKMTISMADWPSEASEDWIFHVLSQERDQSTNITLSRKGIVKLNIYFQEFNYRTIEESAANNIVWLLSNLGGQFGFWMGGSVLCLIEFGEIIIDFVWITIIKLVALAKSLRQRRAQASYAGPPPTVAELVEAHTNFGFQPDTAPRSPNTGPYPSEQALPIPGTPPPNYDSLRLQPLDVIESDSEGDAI
T1 sequence (P51170 1-649): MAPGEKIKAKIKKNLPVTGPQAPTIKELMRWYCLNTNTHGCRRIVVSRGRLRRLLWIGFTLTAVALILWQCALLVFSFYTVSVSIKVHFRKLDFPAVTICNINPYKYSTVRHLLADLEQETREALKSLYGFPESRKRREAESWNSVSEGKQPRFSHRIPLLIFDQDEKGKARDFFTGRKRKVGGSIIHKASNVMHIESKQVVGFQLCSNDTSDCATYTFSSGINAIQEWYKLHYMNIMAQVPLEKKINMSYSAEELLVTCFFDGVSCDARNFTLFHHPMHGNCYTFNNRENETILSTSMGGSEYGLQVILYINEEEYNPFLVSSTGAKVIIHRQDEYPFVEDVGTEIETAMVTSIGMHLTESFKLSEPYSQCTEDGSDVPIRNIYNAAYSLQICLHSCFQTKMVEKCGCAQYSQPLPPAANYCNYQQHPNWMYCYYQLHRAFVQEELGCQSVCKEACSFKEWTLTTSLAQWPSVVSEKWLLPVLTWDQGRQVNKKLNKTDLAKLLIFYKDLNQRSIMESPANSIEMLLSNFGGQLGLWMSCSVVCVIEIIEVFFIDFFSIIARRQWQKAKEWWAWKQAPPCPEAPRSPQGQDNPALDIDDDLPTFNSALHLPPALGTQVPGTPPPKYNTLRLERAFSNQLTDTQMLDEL
As to the kind of experiment: In vitro sodium channel blocking activity (short circuit current, Ussing chambers), human airway cells. The settings on record: freshly excised cell from human airways. Type of data set: cell-based. The procedure: In Vitro Measure of Sodium Channel Blocking Activity and Reversibility
(§1) One assay used to assess mechanism of action and/or potency of the compounds of the present invention involves the determination of lumenal drug inhibition of airway epithelial sodium currents measured under short circuit current (ISC) using airway epithelial monolayers mounted in Ussing chambers. Cells obtained from freshly excised human, dog, sheep or rodent airways are seeded onto porous 0.4 micron Snapwell™ Inserts (CoStar), cultured at air-liquid interface (ALI) conditions in hormonally defined media, and assayed for sodium transport activity (ISC) while bathed in Krebs Bicarbonate Ringer (KBR) in Using chambers. All test drug additions are to the lumenal bath with half-log dose addition protocols (from 1×10^−11 M to 3×10^−5 M), and the cumulative change in ISC (inhibition) recorded. All drugs are prepared in dimethyl sulfoxide as stock solutions at a concentration of 1×10^−2 M and stored at −20° C. […] After the maximal concentration ([…]) is administered, the lumenal bath is exchanged three times with fresh drug-free KBR solution, and the resultant ISC measured after each wash for approximately 5 minutes in duration. Reversibility is defined as the percent return to the baseline value for sodium current after the third wash. All data from the voltage clamps are collected via a computer interface and analyzed off-line.
(§2) Dose-effect relationships for all compounds are considered and analyzed by the Prism 3.0 program.

For data set [2], the target named is T2, epithelial sodium channels (ENaC) (Canis lupus familiaris, UniProt A0A8I3MKE6+A0A8I3Q679+Q95165).
T2 sequence (A0A8I3Q679 1-649): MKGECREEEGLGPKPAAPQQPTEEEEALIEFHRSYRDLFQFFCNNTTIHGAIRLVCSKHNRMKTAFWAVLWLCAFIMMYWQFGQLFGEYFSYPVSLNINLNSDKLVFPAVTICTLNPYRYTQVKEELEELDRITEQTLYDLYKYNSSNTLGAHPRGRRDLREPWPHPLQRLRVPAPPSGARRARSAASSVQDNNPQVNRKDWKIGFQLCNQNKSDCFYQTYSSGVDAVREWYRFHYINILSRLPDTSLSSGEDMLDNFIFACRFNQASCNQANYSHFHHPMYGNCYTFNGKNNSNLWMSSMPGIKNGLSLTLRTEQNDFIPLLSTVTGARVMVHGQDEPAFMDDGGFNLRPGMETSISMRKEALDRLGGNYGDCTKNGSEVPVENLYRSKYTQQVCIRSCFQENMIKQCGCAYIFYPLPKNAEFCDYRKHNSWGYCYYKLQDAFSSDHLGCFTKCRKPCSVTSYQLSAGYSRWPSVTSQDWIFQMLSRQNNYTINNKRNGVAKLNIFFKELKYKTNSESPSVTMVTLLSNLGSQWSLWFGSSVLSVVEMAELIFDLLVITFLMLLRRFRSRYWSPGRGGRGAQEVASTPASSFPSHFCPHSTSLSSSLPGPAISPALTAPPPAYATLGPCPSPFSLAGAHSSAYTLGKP
T2 sequence (Q95165 1-641): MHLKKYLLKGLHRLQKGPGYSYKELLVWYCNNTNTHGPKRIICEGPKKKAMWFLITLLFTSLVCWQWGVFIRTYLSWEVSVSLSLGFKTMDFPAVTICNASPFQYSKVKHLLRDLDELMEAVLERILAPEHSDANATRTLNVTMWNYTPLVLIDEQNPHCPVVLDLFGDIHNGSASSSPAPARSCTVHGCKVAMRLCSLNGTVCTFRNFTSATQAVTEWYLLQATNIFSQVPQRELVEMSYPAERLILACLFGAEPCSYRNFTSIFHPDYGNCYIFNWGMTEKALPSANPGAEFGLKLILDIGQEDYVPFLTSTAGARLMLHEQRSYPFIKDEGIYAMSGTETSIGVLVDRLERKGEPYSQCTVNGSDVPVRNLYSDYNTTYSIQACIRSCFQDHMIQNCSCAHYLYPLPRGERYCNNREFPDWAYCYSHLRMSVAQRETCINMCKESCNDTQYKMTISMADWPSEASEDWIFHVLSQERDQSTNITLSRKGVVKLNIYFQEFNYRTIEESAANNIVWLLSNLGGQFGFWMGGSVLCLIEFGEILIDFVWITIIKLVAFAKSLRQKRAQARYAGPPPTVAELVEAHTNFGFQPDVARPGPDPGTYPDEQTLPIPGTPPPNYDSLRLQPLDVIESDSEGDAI
T2 sequence (A0A8I3MKE6 1-646): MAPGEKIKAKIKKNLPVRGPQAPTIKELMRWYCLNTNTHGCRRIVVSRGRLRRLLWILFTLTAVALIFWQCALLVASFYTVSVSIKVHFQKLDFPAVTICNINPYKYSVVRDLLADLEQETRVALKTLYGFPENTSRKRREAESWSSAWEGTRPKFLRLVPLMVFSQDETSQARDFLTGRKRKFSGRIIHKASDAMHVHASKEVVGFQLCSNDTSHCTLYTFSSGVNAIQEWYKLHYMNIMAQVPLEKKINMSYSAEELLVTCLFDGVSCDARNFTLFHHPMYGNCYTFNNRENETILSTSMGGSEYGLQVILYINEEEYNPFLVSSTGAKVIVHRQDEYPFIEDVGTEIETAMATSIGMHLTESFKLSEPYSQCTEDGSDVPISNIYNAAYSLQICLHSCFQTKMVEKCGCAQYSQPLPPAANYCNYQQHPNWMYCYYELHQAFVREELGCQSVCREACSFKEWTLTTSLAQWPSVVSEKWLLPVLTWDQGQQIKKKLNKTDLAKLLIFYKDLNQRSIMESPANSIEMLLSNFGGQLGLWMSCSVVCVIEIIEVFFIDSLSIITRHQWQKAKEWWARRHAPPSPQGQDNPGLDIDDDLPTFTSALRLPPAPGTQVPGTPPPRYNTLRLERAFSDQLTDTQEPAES
As to the kind of experiment: In vitro sodium channel blocking activity (short circuit current, Ussing chambers), dog airway cells. Type of data set: cell-based. The settings on record: freshly excised cell from dog airways. The method, then:
as §1, with “Reversibility is defined as the percent return to the baseline value for sodium current after the third wash.” left out
as §2

Structures are written as SMILES. Counter-ions that a name gives are not always drawn.

A word on the melting point: it is the temperature, or range, at which the solid turns liquid. `C[C@H](O)C(=O)O.N=C(NCCCCc1ccc(OCC(O)CO)c2ccccc12)NC(=O)c1cc(Cl)c(N)cc1N` [Compound 26, 2,4-Diamino-5-chloro-N—(N-{4-[4-(2,3-dihydroxypropoxy)naphthalen-1-yl]butyl}carbamimidoyl)benzamide L-(+)-Lactic Acid Salt]: the melting point is 115 to 118 °C. Further, the “Potency of Sodium Channel Blockade Relative to Amiloride” value in data set [1] was 30. Turning to `N=C(NCCCCc1ccc2cc(OCC(O)CO)ccc2c1)NC(=O)c1nc(Cl)c(N)nc1N` (centres unmarked) [Compound 34, 3,5-Diamino-6-chloro-N—(N-{4-[6-(2,3-dihydropropoxy)naphthalen-2-yl]butyl}carbamimidoyl)pyrazine-2-carboxamide Methanesulfonic Acid Salt], the “Potency of Sodium Channel Blockade Relative to Amiloride” value in data set [1] came to 63. Consider `CS(=O)(=O)O.N=C(NCCCCc1ccc(OCCCN)c2ccccc12)NC(=O)c1nc(Cl)c(N)nc1N` [Compound 72, 3,5-Diamino-N—(N-{4-[4-(3-aminopropoxy)naphthalen-1-yl]butyl}carbamimidoyl)-6-chloropyrazine-2-carboxamide Methanesulfonic Acid Salt], for which the “Potency of Sodium Channel Blockade Relative to Amiloride” value in data set [1] was determined as 164. As a reminder, the IC50 is the midpoint of a concentration-inhibition curve. A lower IC50 goes with higher potency. `CC1OC[C@@H](O)[C@H]([C@H](O)[C@@H](O)CNCCCOc2ccc3cc(CCCCN)ccc3c2)O1` (some centres unmarked) [Compound 105]: the IC50 in data set [2] is 23.5 nM.

These data come from patent publication US8575176B2, “Heteroaromatic pyrazinoylguanidine sodium channel blockers” (Parion Sciences, Inc., priority 2008, dated 2013).
